Source: ChEMBL document CHEMBL4152189, “Incorporation of nitric oxide donor into 1,3-dioxyxanthones leads to synergistic anticancer activity” (Eur J Med Chem, 2018)
Activity calls are given as the source filed them. The calls are words filed in the database; no cut-off is given here.

Experiments:
HepG2 [1] = test: Cell cycle arrest in human HepG2 cells assessed as accumulation at S phase at 0.66 uM after 24 hrs by propidium iodide/RNAse staining-based flow cytometric analysis; assay type: functional
L02 [2] = test: Growth inhibition of human HL-7702 cells after 24 hrs by MTT assay; assay type: cell-based; settings: L02, 24 h
NIH3T3 = test: Growth inhibition of mouse NIH/3T3 cells after 24 hrs by MTT assay; assay type: cell-based; settings: NIH3T3, 24 h
HepG2 [3] = test: Induction of apoptosis in human HepG2 cells at 0.33 uM after 24 hrs by Annexin-V/propidium iodide staining-based flow cytometric analysis; assay type: functional
HepG2 [4] = test: Induction of apoptosis in human HepG2 cells assessed as early apoptotic cells at 0.33 uM after 24 hrs by Annexin-V/propidium iodide staining-based flow cytometric analysis; assay type: functional
HepG2 [5] = test: Induction of apoptosis in human HepG2 cells assessed as late apoptotic/necrotic cells at 0.33 uM after 24 hrs by Annexin-V/propidium iodide staining-based flow cytometric analysis; assay type: functional
HepG2 [6] = test: Induction of NO generation in human HepG2 cells assessed as nitrite levels at 0.66 uM after 1 hr by Griess assay (reference value: 12.9 +/- 1.5 uM); assay type: functional
HepG2 [7] = test: Induction of NO generation in human HepG2 cells assessed as nitrite levels at 0.66 uM after 3 hrs by Griess assay (reference value: 12.8 +/- 1.5 uM); assay type: functional
HepG2 [8] = test: Induction of NO generation in human HepG2 cells assessed as nitrite levels at 0.66 uM after 6 hrs by Griess assay (reference value: 12.6 +/- 1.1 uM); assay type: functional
HepG2 [9] = test: Induction of NO generation in human HepG2 cells assessed as nitrite levels at 0.66 uM after 12 hrs by Griess assay (reference value: 12.7 +/- 1.8 uM); assay type: functional
HepG2 [10] = test: Induction of NO generation in human HepG2 cells assessed as nitrite levels at 0.16 uM after 24 hrs by Griess assay (reference value: 12.8 +/- 1.7 uM); assay type: functional
HepG2 [11] = test: Induction of NO generation in human HepG2 cells assessed as nitrite levels at 0.33 uM after 60 hrs by Griess assay (reference value: 12.8 +/- 1.5 uM); assay type: functional
L02 [12] = test: Induction of NO generation in human HL-7702 cells assessed as nitrite levels at 0.66 uM after 1 hr by Griess assay (reference value: 11.6 +/- 1.1 uM); assay type: functional
L02 [13] = test: Induction of NO generation in human HL-7702 cells assessed as nitrite levels at 0.66 uM after 60 hrs by Griess assay (reference value: 11.8 +/- 1.3 uM); assay type: functional
HepG2 [14] = test: Induction of apoptosis in human HepG2 cells assessed as increase in cleaved PARP level up to 0.66 uM after 24 hrs by Western blot analysis; assay type: functional, cell-based
HepG2 [15] = test: Cell cycle arrest in human HepG2 cells assessed as accumulation at S phase at 0.16 to 0.66 uM after 24 hrs by propidium iodide/RNAse staining-based flow cytometric analysis; assay type: functional

SMILES: COc1cccc2oc3cc(OCCCCCO[N+](=O)[O-])cc(O)c3c(=O)c12
- Activity (HepG2 [1]): 56.2%
- IC50 (L02 [2]): 377 µM
- IC50 (NIH3T3): 378 µM
- Activity (HepG2 [3]): 76.6%
- Activity (HepG2 [4]): 64.8%
- Activity (HepG2 [5]): 11.8%
- Activity (HepG2 [6]): 21.6 µM
- Activity (HepG2 [7]): 25.7 µM
- Activity (HepG2 [8]): 31.4 µM
- Activity (HepG2 [9]): 36 µM
- Activity (HepG2 [10]): 26.2 µM
- Activity (HepG2 [11]): 18.2 µM
- Activity (L02 [12]): 14.2 µM
- Activity (L02 [13]): 14.5 µM
- Activity (HepG2 [14]): Dose-dependent effect
- Activity (HepG2 [15]): Active
